Test results as given in patent US20160130352A1, “RHAMM, A CO-RECEPTOR AND ITS INTERACTIONS WITH OTHER RECEPTORS IN CANCER CELL MOTILITY AND THE IDENTIFICATION OF CANCER PROGNITOR CELL POPULATIONS” (THE REGENTS OF THE UNIVERSITY OF CALIFORNIA, priority 2006, published 2016).
Read-outs that look alike come from different tables or passages of the source.

Assays:
MDA-MB-231 cells = experiment: Time-lapse cinemicrography random motility; type: cell-based, human
Protocol: (§1) Random motility analyses were performed to quantify the effect of the blocking Rhamm and CD44 antibodies, HA binding peptide, hyaluronan, and the MEK inhibitor, PD098059 on cell motility. Cells were seeded on T-25 flasks (Costar, Cambridge. Mass.) at 1×10^5 cells/flask. Cells were incubated with anti-Rhamm antibody (30 μg/ml), anti-CD44 antibody (30 μg/ml), a mixture of anti-Rhamm (30 μg/ml) and anti-CD44 antibodies ([…]), HA binding peptide (1 μg/ml) or its scrambled control (1 μg/ml), and/or 50 μM PD098059 for 30 minutes prior to filming. Alternatively, cells were stimulated with 50 μg/L of HA immediately prior to filming. As a control, a mixture of mouse and rabbit IgG (30 μg/ml each), DMSO (for PD098059) or PBS (for HA) were used. Cell locomotion was monitored for a period of 6 hours using a 10× modulation objective (Zeiss, Germany) attached to a Zeiss Axiovert 100 inverted microscope equipped with Hoffman Modulation contrast optical filters (Greenvale, N.Y.) and a 37° C. heated stage. Cell images were captured with a CCD video camera module attached to a Hamamatsu CCD camera controller. Motility was assessed using Northern Exposure 2.9 image analysis software (Empix Imaging, Mississauga, Ontario). Nuclear displacement of 20-30 cells was measured and data were subjected to statistical analysis (see below). Each experiment was repeated at least three times. PD098059 MEK inhibitor was used to test the involvement of the MAP kinase pathway in the motility of these cells. The cells were incubated with the MEK1 inhibitor at 50 μM in complete culture medium 30 minutes before the beginning of motility filming. DMSO alone was used as a control. The results of motility analyses were expressed as means (μm/hour) means±standard deviations, unless otherwise indicated.

MCF7 cells = experiment: Time-lapse cinemicrography random motility; type: cell-based, human; settings: for motility: peptide 1 μg/ml, 30 minutes prior to filming
Protocol: as §1, with “Alternatively, cells were stimulated with 50 μg/L of HA immediately prior to filming.” left out

[1] = set-up: species or system mice; settings: mouse, in vivo, iv
From the text: J Am Chem Soc. 125(25): p. 7494-5, hereby incorporated by reference), MDA-MB-231 breast tumor xenografts which express high levels of Rhamm and CD44 (FIG. 2A) and the liver, whose endothelial cells express the HA endocytic receptor, Hare (See FIG. 13D and Weigel, P. H. and J. H. Yik, 2002. Glycans as endocytosis signals: the cases of the asialoglycoprotein and hyaluronan/chondroitin sulfate receptors. Biochim Biophys Acta. 1572(2-3): p. 341-63).

[2] = Pharmacokinetic parameters of HA in serum by route of administration (competitive binding ELISA); type: in vivo
From the text: Table 2 below is a summary of the kinetic analysis of HA in serum by different routes of administration.

[3] = Kinetics and tolerability of HA injected I.V. in rats; type: in vivo; settings: I.V. 1-12 mg/kg
[4] = set-up: species or system humans; settings: human, in vivo, iv
[5] = peptide 1 μg/ml, 30 minutes prior to filming
[6] = PD098059 50 μM and/or anti-Rhamm antibodies
[7] = serum starved 24-48 hours, 25-50 μg/ml exogenous HA

For “YLKQKKVKKHIV [scrambled control peptide]”, the motility (MDA-MB-231 cells; [5]) was “no effect” and the motility (MCF7 cells) was “no effect”.

In the case of YKQKIKHVVKLK [HA-binding peptide], the motility (MDA-MB-231 cells; [5]) is reported as “significantly reduced motility” and the motility (MCF7 cells) is reported as “no effect”.

In the case of `COc1cccc(-c2cc(=O)c3ccccc3o2)c1N` [PD098059], the basal motility rate (MDA-MB-231 cells; [6]) is reported as “significantly inhibited” and the basal motility (MCF7 cells; [6]) is reported as “no effect”.

For Hyaluronan [HA], the half-life [1] was “up to 12 hrs”, the motility (MDA-MB-231 cells; [7]) was “significantly stimulated motility” and the Cmax ([2]; Intravenous) was 5096.00 µg/mL. It also gave a Tmax ([2]; Intravenous) of 12 h, a Cmax ([2]; Oral) of 0.15 µg/mL and a Tmax ([2]; Oral) of 36 h. For the same molecule, the Cmax ([2]; Subcutaneous) was 1454.00 µg/mL, the Tmax ([2]; Subcutaneous) was 72 h and the tolerability [3] was “well tolerated”. The half-life [4] was “up to 12 hrs”, the “T1/2 (HA serum levels)” value ([4]; 1.5 mg/kg) was 12 h and the motility rate (MCF7 cells; [7]) was “no effect”.
